# Data published in US9364496B2 (ONCOGENEX TECHNOLOGIES INC., priority 2013, dated 2016).
# “And” between values parts separate entries of the source, which are not always exact repeats. Equal values may be shown once. “Also recorded” adds a separate entry of the source. Marks after values point to notes of the source that are not given here. Oligonucleotides are written 5' to 3', each unit as a sugar letter and its base; * is a phosphorothioate linkage, no mark a phosphodiester; rarer units and linkages stand in square brackets, end groups in braces. Plain capitals give the bases only. e = 2'-O-(2-methoxyethyl) (MOE); [5mC] = 5-methylcytosine; d = 2'-deoxy (DNA)
# Key:
# [1] = in vivo
# bladder cancer = type: in vivo, human; conditions: each group; loading doses then custirsen with a chemotherapeutic agent
# Excerpt: At least 50 bladder cancer patients are separated into two groups.
# clusterin = conditions: cited from earlier work
# [2] = in vivo; remark: listed apart in the source
# myeloma = type: in vivo, human; conditions: each group; loading doses then custirsen with a chemotherapeutic agent
# Excerpt: At least 50 myeloma patients are separated into two groups.
# [3] = Custirsen up-titration with dexamethasone premedication, tolerability and ECG Holter (discussion); conditions: with or without premedication with dexamethasone
# ovarian cancer = type: in vivo, human; conditions: each group; loading doses then custirsen with a chemotherapeutic agent
# Excerpt: At least 50 ovarian cancer patients are separated into two groups.
# [4] = test system: RPMI 8226 (human myeloma) xenograft; experiment: In vivo activity of custirsen (TV-1011), different doses and regimens with Bortezomib, RPMI 8226 xenograft (Example 15); conditions: for volume / weight / % of baseline (weight) / Δ % (weight) / Δ weight: group 8: TV-1011 30 mg/kg qd*5, 40 mg/kg biwk
# Protocol: 120 CB.17 SCID female mice, 4-6 weeks old, 16-20 grams, obtained from Harlan animal breeding center.
# Cells (originated from ATCC) were cultured on RPMI medium. Cell suspension was centrifuged and resuspended in 50% Matrigel/HBSS to a final concentration of 7×10^7 cells/ml. The suspension was implanted s.c. in the right flank of the anesthetized mouse at a volume of 100 μl.
# Seven ml saline were added to the original vial containing 3.5 mg powder resulting in 0.5 mg/ml. Three ml of this solution were added to 27 ml saline to receive 0.05 mg/ml concentration. […] 28.5 ml of 4 mg/ml were added to 9.5 saline to receive 3 mg/ml.
# Mice were implanted subcutaneously, with 7×10^6 RPMI 8226 cells/mouse (in 50% Martigel/HBSS) on Day 0. On day 21, mice were sorted by the optimal average tumor volume (˜130 mm3) and were allocated into eight groups of 10 mice each.
# The treatment started on day 21 post implant, 0.2 ml per 20 grams v/w.
# [formula] The analysis of weight gain and tumor volume progression was made using one-way ANOVA followed by Tukey post-hoc comparisons.
# NSCLC = type: in vivo, human; conditions: each group; loading doses then custirsen with a chemotherapeutic agent
# Excerpt: At least 50 NSCLC patients are separated into two groups.
# breast cancer = type: in vivo, human; conditions: each group; loading doses then custirsen with a chemotherapeutic agent
# Excerpt: At least 50 breast cancer patients are separated into two groups.
# lung cancer = type: in vivo, human; conditions: each group; loading doses then custirsen with a chemotherapeutic agent
# Excerpt: At least 50 lung cancer patients are separated into two groups.
# melanoma = type: in vivo, human; conditions: each group; loading doses then custirsen with a chemotherapeutic agent
# Excerpt: At least 50 melanoma patients are separated into two groups.
# [5] = Phase I healthy volunteer study TV1011-DDI-102, 640 mg custirsen; type: in vivo
# Excerpt: Three subjects withdrew from the study due to these constitutional symptoms.
# [6] = in vivo; remark: listed apart in the source
# [7] = in vivo; remark: listed apart in the source
# [8] = TV-1011 alone 30 mg/kg ip qd*5, then 40 mg/kg biwk, day 62
# [9] = Day 21 (baseline), group Mean, n 10
# [10] = Day 21 (baseline), individual animals
# [11] = Day 28 vs Day 21, group Mean, n 10
# [12] = Day 28 vs Day 21, individual animals
# [13] = Day 33 vs Day 21, group Mean, n 10
# [14] = Day 33 vs Day 21, individual animals
# [15] = Day 41 vs Day 21, group Mean, n 10
# [16] = Day 41 vs Day 21, individual animals
# [17] = group mean, n=10, day block 1 of 3
# [18] = group mean, n=10, day block 2 of 3
# [19] = group mean, n=10, day block 3 of 3
# [20] = individual animals, day block 1 of 3
# [21] = individual animals, day block 2 of 3
# [22] = individual animals, day block 3 of 3
substance,measurement,setting,value
"Custirsen: anti-clusterin antisense oligonucleotide CAGCAGCAGAGTCTTCATCAT, phosphorothioate backbone, 2′-O-methoxyethyl at nucleotides 1-4 and 18-21, 5-methylcytosines at 1, 4, 19 (antisense e[5mC]*eA*eG*e[5mC]*dA*dG*dC*dA*dG*dA*dG*dT*dC*dT*dT*dC*dA*eT*e[5mC]*eA*eT; listed as Homo sapiens)","chills, patients",[1],35%
same,"fever, patients",[1],50%
same,occurrence of grade 3/4 hepatic toxicity,[1],rare
same,severity of fever and chills/rigors,[1],usually mild (grade 1-2)
same,time of appearance of fever and chills/rigors after the infusion,[1],4 to 8 h
same,cancer condition of patients,bladder cancer,improves
same,expression of clusterin,clusterin,potently regulated the expression of clusterin; also recorded: potently reduces the expression of clusterin
same,sensitization of cancer cells to chemotherapy,"clusterin; human prostate, breast, ovarian, lung, renal, bladder, and melanoma cells",sensitizes
same,grade-4 liver toxicity,[2],no reports
same,incidence of elevated liver function tests (ELFTs),[2],higher incidence
same,cancer condition of patients,myeloma,improves
same,effect of up-titration (reduced loading doses) on constitutional syndrome / side effects,[3],mitigated
same,cancer condition of patients,ovarian cancer,improves
same,"efficacy, in words","[4]; Custirsen 30 mg/kg qdx5 then 40 mg/kg biwk, alone",very efficacious
same,effect of continuous treatment versus loading only,"[4]; Custirsen with Velcade, maintained vs loading only",dose-dependent and results in better outcome versus loading only
same,Max BW (mean) reduction,"[4]; TV-1011 alone 30 mg/kg ip qd*5, then 40 mg/kg biwk, day 28",−0.5%
same,% TGI,[4]; [8],67%
same,No. of CR,[4]; [8],0
same,No. of PR,[4]; [8],1
same,No. of TRD,[4]; [8],0
same,No. og nTRD,[4]; [8],0
same,"Δ mean tumor volume, (mean ± se)",[4]; [8],574 ± 118
same,% TGI,"[4]; TV-1011 alone 30 mg/kg ip qd*5, then 40 mg/kg biwk, day 62, listed as TV-1011",67*** %
same,volume,[4]; [9],129.3
same,weight,[4]; [9],18.8
same,volume,[4]; [10],107 and 113 and 116 and 119 and 123 and 128 and 131 and 138 and 147 and 172
same,weight,[4]; [10],21.4 and 17.7 and 20.5 and 15.9 and 19.6 and 20.3 and 17.9 and 16.6 and 20.1 and 17.8
same,% of baseline (weight),"[4]; Day 28, group Mean, n 10",99.5%
same,volume,"[4]; Day 28, group Mean, n 10",158.1
same,weight,"[4]; Day 28, group Mean, n 10",18.7
same,% of baseline (weight),"[4]; Day 28, individual animals",98.0% and 104.0% and 102.6% and 95.2% and 96.9% and 94.4% and 103.0% and 98.7% and 98.3%
same,volume,"[4]; Day 28, individual animals",78 and 127 and 114 and 149 and 180 and 204 (2×) and 159 and 175 and 193
same,weight,"[4]; Day 28, individual animals",21.0 and 118.5 and 21.3 and 16.3 and 18.7 and 19.6 and 16.9 and 17.1 and 19.9 and 17.5
same,Δ % (weight),[4]; [11],−0.5%
same,Δ weight,[4]; [11],−0.1
same,Δ % (weight),[4]; [12],−2.0% and 4.4% and 4.0% and 2.6% and −4.8% and −3.1% and 5.6% and 3.0% and −1.3% and −1.7%
same,Δ weight,[4]; [12],−0.4 and 0.8 (2×) and 0.4 and −0.9 and −0.6 and −1.0 and 0.5 and −0.3 (2×)
same,% of baseline (weight),"[4]; Day 33, group Mean, n 10",101.6%
same,volume,"[4]; Day 33, group Mean, n 10",147.0
same,weight,"[4]; Day 33, group Mean, n 10",19.1
same,% of baseline (weight),"[4]; Day 33, individual animals",97.8% and 108.3% and 108.1% and 95.9% and 94.0% and 101.3% and 98.3% and 105.5% and 99.9% and 107.3%
same,volume,"[4]; Day 33, individual animals",132 and 131 and 120 and 116 and 167 and 157 and 100 and 154 and 206 and 186
same,weight,"[4]; Day 33, individual animals",20.9 and 19.2 and 22.1 and 15.2 and 18.4 and 20.5 and 17.6 and 17.5 and 20.1 and 19.1
same,Δ % (weight),[4]; [13],1.6%
same,Δ weight,[4]; [13],0.3
same,Δ % (weight),[4]; [14],−2.2% and 8.3% and 8.1% and −4.1% and −6.0% and 1.3% and −1.7% and 5.5% and −0.1% and 7.3%
same,Δ weight,[4]; [14],−0.5 and 1.5 and 1.7 and −0.6 and −1.2 and 0.3 and −0.3 and 0.9 and 0.0 and 1.3
same,% of baseline (weight),"[4]; Day 41, group Mean, n 10",106.8%
same,volume,"[4]; Day 41, group Mean, n 10",184.3
same,weight,"[4]; Day 41, group Mean, n 10",20.0
same,% of baseline (weight),"[4]; Day 41, individual animals",101.4% and 112.9% and 111.2% and 108.4% and 102.9% and 102.3% and 105.9% and 112.3% and 106.7% and 103.9%
same,volume,"[4]; Day 41, individual animals",76 and 144 and 140 and 139 and 336 and 249 and 152 and 185 and 223 and 200
same,weight,"[4]; Day 41, individual animals",21.7 and 20.0 and 22.8 and 17.2 and 20.2 and 20.7 and 18.9 and 18.7 and 21.5 and 18.5
same,Δ % (weight),[4]; [15],6.8%
same,Δ weight,[4]; [15],1.2
same,Δ % (weight),[4]; [16],1.4% and 12.9% and 11.2% and 8.4% and 2.9% and 2.3% and 5.9% and 6.7% and 3.9%
same,Δ weight,[4]; [16],0.3 and 2.3 (2×) and 1.3 (2×) and 0.6 and 0.5 and 1.1 and 2.0 and 0.7
same,% of baseline (weight),[4]; [17],113.8%
same,volume,[4]; [17],344.4
same,Δ % (weight),[4]; [17],13.8%
same,Δ weight,[4]; [17],2.5
same,weight,"[4]; group mean, n=10, day block 1 of 3 (day head not shown)",21.3
same,% of baseline (weight),[4]; [18],109.2%
same,volume,[4]; [18],476.6
same,weight,[4]; [18],20.4
same,Δ % (weight),[4]; [18],9.2%
same,Δ weight,[4]; [18],1.7
same,% of baseline (weight),[4]; [19],111.5%
same,volume,[4]; [19],702.9
same,weight,[4]; [19],20.9
same,Δ % (weight),[4]; [19],11.5%
same,Δ weight,[4]; [19],2.1
same,% of baseline (weight),[4]; [20],108.5% and 116.7% and 112.9% and 120.7% and 110.1% and 107.6% and 114.4% and 123.3% and 115.7% and 108.4%
same,volume,[4]; [20],101 and 360 and 268 and 267 and 556 and 581 and 211 and 257 and 451 and 392
same,Δ % (weight),[4]; [20],8.5% and 16.7% and 12.9% and 20.7% and 10.1% and 7.6% and 14.4% and 23.3% and 15.7% and 8.4%
same,Δ weight,[4]; [20],1.8 and 3.0 and 2.6 (2×) and 3.3 and 2.0 and 1.5 (2×) and 3.9 and 3.2
same,weight,"[4]; individual animals, day block 1 of 3 (day head not shown)",23.2 and 20.6 and 23.1 and 19.1 and 21.6 and 21.8 and 20.5 (2×) and 23.3 and 19.3
same,% of baseline (weight),[4]; [21],103.3% and 116.7% and 109.7% and 122.9% and 103.1% and 104.0% and 106.1% and 114.0% and 108.4% and 103.7%
same,volume,[4]; [21],106 and 638 (2×) and 463 and 399 and 767 and 663 and 257 and 246 and 588
same,weight,[4]; [21],22.1 and 20.7 and 22.4 and 19.5 and 20.2 and 21.1 and 19.0 (2×) and 21.8 and 18.4
same,Δ % (weight),[4]; [21],3.3% and 16.7% and 9.7% and 22.9% and 3.1% and 4.0% and 6.1% and 14.0% and 8.4% and 3.7%
same,Δ weight,[4]; [21],0.7 (2×) and 3.0 and 2.0 and 3.6 and 0.6 and 0.8 and 1.1 and 2.3 and 1.7
same,% of baseline (weight),[4]; [22],105.9% and 121.8% and 111.4% and 118.7% and 106.2% and 107.1% and 106.8% and 119.0% and 112.4% and 106.3%
same,volume,[4]; [22],92 and 955 and 891 and 568 and 1324 and 804 and 379 and 273 and 1001 and 742
same,weight,[4]; [22],22.7 and 21.5 and 22.8 and 18.8 and 20.8 and 21.7 and 19.1 and 19.8 and 22.6 and 18.9
same,Δ % (weight),[4]; [22],5.9% and 21.8% and 11.4% and 18.7% and 6.2% and 7.1% and 6.8% and 19.0% and 12.4% and 6.3%
same,Δ weight,[4]; [22],1.3 and 3.9 and 2.3 and 3.0 and 1.2 (2×) and 1.4 and 3.2 and 2.5 and 1.1
same,cancer condition of patients,NSCLC,improves
same,cancer condition of patients,breast cancer,improves
same,cancer condition of patients,lung cancer,improves
same,cancer condition of patients,melanoma,improves
same,time of peak of prolonged coagulation parameters after dose,"[5]; human, in vivo",around 48 hours
same,coagulation parameters (PTT and PT),"[5]; most subjects, starting a few hours after the first loading dose",Slightly prolonged
same,AEs related to custirsen,"[5]; multiple 640 mg doses, after the first infusion",93 AEs
same,deaths or other SAEs,"[5]; single and repeated doses of 640 mg custirsen, healthy volunteers",No deaths or other SAEs were reported; also recorded: no SAEs
same,"incidence of the most common adverse events (fatigue, chills, nausea, pyrexia, etc.)",[6],more than 20 % of the patients
same,occurrence of grade 3/4 renal toxicity,[6],rare
same,INR values,[7],≤ 1.5
same,reports of grade 2 toxicity for PTT,[7],2 reports
